ChEMBL document CHEMBL1148131, “Efficacy of scopadulcic acid A against Plasmodium falciparum in vitro” (J Nat Prod, 2002)
pIC50: −log10 of the molar value.

How the values were obtained:
Assay type in all cases: functional, organism-based
Plasmodium falciparum [1] = experiment: Antimalarial activity against multidrug-resistant Plasmodium falciparum TM91C235 after 24 hrs by [3H]hypoxanthine uptake
Plasmodium falciparum [2] = experiment: Antimalarial activity against Plasmodium falciparum W2 after 24 hrs by [3H]hypoxanthine uptake
Plasmodium falciparum [3] = experiment: Antimalarial activity against Plasmodium falciparum D6 after 24 hrs by [3H]hypoxanthine uptake

SMILES | pIC50 (Plasmodium falciparum [1]) | pIC50 (Plasmodium falciparum [2]) | pIC50 (Plasmodium falciparum [3])
OC(c1cc(C(F)(F)F)nc2c(C(F)(F)F)cccc12)C1CCCCN1 (centres undefined) [MEFLOQUINE] | 7.23 |  | 
C[C@]12CC[C@]3(C1)[C@H](CC2=O)C[C@@H](OC(=O)c1ccccc1)[C@H]1[C@@](CO)(C(=O)O)CCC[C@@]13C [SCOPADULCIC ACID A] | 4.64 | 4.72 | 4.57
